According to patent publication EP1501554B1, “BENZOTHIENYL ANALOGUE OF SOMATOSTATINE, SELECTIVE FOR CERTAIN SOMATOSTATIN RECEPTORS” (Advanced Accelerator Applications USA, Inc., priority 2002, dated 2003):
Like-named read-outs stand apart in the source and are kept apart here.

What was measured:
hsst 5 [1] = biological target: T1, hsst 5 (Homo sapiens, UniProt P35346); experiment: In vitro binding affinity, transfected cell lines, hsst 5; conditions: IC50±SEM; applicant's series, with own SS-28 reference
T1 construct: expressed in transfected cells
T1 sequence (P35346 whole entry): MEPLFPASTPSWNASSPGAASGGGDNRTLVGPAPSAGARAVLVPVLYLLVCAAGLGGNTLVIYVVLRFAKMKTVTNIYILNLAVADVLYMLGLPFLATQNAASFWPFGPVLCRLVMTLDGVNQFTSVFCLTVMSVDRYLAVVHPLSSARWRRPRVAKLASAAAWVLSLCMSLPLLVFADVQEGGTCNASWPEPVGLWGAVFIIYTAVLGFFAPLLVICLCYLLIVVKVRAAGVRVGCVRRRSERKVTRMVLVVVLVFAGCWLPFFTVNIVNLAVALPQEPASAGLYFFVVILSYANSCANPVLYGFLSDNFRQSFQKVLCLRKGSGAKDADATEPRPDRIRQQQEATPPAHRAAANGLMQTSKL

hsst 4 [2] = biological target: T2, hsst 4 (Homo sapiens, UniProt P31391); experiment: In vitro binding affinity, transfected cell lines, hsst 4; conditions: IC50±SEM; applicant's series, with own SS-28 reference
T2 construct: expressed in transfected cells
T2 sequence (P31391 whole entry): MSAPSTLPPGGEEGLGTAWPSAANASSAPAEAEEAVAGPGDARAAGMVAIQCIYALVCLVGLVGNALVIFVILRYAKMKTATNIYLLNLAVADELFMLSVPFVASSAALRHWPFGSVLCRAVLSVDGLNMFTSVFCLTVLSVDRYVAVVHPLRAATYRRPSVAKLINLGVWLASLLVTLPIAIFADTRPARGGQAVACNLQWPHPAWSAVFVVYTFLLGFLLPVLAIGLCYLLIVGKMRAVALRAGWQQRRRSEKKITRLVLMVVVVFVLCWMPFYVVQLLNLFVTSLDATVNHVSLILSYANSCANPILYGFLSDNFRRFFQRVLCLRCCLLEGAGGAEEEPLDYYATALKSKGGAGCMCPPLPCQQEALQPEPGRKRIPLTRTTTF

hsst 2 [3] = biological target: T3, hsst 2 (Homo sapiens, UniProt P30874); experiment: In vitro binding affinity, transfected cell lines, hsst 2; conditions: IC50±SEM; applicant's series, with own SS-28 reference
T3 construct: expressed in transfected cells
T3 sequence (P30874 whole entry): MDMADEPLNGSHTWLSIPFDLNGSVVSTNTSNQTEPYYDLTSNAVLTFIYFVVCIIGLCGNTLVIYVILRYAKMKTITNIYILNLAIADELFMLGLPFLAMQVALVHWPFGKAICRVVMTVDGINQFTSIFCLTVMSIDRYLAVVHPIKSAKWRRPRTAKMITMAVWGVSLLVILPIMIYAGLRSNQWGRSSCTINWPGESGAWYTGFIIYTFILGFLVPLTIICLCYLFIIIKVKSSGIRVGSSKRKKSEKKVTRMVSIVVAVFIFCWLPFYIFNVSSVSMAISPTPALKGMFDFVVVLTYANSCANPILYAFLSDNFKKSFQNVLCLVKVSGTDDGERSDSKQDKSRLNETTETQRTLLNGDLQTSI

hsst 3 [4] = biological target: T4, hsst 3 (Homo sapiens, UniProt P32745); experiment: In vitro binding affinity, transfected cell lines, hsst 3; conditions: IC50±SEM; applicant's series, with own SS-28 reference
T4 construct: expressed in transfected cells
T4 sequence (P32745 whole entry): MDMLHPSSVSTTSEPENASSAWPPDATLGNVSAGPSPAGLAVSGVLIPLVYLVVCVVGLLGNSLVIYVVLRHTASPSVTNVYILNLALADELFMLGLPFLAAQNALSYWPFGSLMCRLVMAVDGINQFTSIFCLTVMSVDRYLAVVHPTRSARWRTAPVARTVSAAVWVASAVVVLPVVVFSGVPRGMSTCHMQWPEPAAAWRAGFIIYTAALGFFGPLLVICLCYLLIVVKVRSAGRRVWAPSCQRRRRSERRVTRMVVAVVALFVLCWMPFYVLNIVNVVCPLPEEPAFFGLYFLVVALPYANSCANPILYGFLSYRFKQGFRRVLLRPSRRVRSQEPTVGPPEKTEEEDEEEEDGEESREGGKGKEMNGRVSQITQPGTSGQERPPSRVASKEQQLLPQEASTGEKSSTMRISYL

hsst 5 [5] = biological target: T1, hsst 5; conditions: IC50±SEM; published series (Reubi et al.), referenced to SS-28; cited from earlier work
hsst 2 [6] = biological target: T3, hsst 2; conditions: IC50±SEM; published series (Reubi et al.), referenced to SS-28; cited from earlier work
hsst 4 [7] = biological target: T2, hsst 4; conditions: IC50±SEM; published series (Reubi et al.), referenced to SS-28; cited from earlier work
hsst 3 [8] = biological target: T4, hsst 3; conditions: IC50±SEM; published series (Reubi et al.), referenced to SS-28; cited from earlier work

Molecule | IC50 (hsst 5 [1]) [nM] | IC50 (hsst 4 [2]) [nM] | IC50 (hsst 2 [3]) [nM] | IC50 (hsst 3 [4]) [nM] | IC50 (hsst 5 [5]) [nM] | IC50 (hsst 2 [6]) [nM] | IC50 (hsst 4 [7]) [nM] | IC50 (hsst 3 [8]) [nM]
Y-DOTA-LAN [cpd. 5] |  |  |  |  | 16 ± 3.4 | 23 ± 5 | > 1000 | 290 ± 105
Y-DOTA-OC [compound 4] |  |  |  |  |  | 20 ± 2 | > 1000 | 
Y-DOTA-TOC [cpd. 6] |  |  |  |  |  | 11 ± 1.7 | > 10000 | 

Further lines, with some results ahead:

IC50 (hsst 5 [1]) [nM] | IC50 (hsst 4 [2]) [nM] | IC50 (hsst 2 [3]) [nM] | IC50 (hsst 3 [4]) [nM] | Molecule | IC50 (hsst 5 [5]) [nM] | IC50 (hsst 2 [6]) [nM] | IC50 (hsst 4 [7]) [nM] | IC50 (hsst 3 [8]) [nM]
2.1 | 60 | 0.43 | 27 | C[C@@H](O)[C@H](NC(=O)[C@@H]1CSSC[C@H](NC(=O)[C@H](N)Cc2ccccc2)C(=O)N[C@@H](Cc2csc3ccccc23)C(=O)N[C@H](Cc2c[nH]c3ccccc23)C(=O)N[C@@H](CCCCN)C(=O)N[C@@H]([C@@H](C)O)C(=O)N1)C(=O)O [compound 13, H-(D)Phe-cyclo[Cys-3-benzothienylalanyl-(D)Trp-Lys-Thr-Cys]-Thr-OH] |  |  |  | 
10 ± 1.6 | > 1000 | 3.3 ± 0.2 | 26 ± 1.9 | C[C@@H](O)[C@@H]1NC(=O)[C@H](CCCCN)NC(=O)[C@@H](Cc2c[nH]c3ccccc23)NC(=O)[C@H](Cc2cccc3ccccc23)NC(=O)[C@@H](NC(=O)[C@@H](Cc2ccccc2)NC(=O)CN2CCN(CC(=O)O)CCN(CC(=O)O)CCN(CC(=O)O)CC2)CSSC[C@@H](C(=O)N[C@H](CO)[C@@H](C)O)NC1=O [cpd. 8, Y-DOTA-[1-Nal^3]-OC] |  |  |  | 
4 | 110 | 1.1 | 7 | C[C@@H](O)[C@H](NC(=O)[C@@H]1CSSC[C@H](NC(=O)[C@@H](Cc2ccccc2)NC(=O)CN2CCN(CC(=O)O)CCN(CC(=O)O)CCN(CC(=O)O)CC2)C(=O)N[C@@H](Cc2csc3ccccc23)C(=O)N[C@H](Cc2c[nH]c3ccccc23)C(=O)N[C@@H](CCCCN)C(=O)N[C@@H]([C@@H](C)O)C(=O)N1)C(=O)O [cpd. 11, ^111In-labelled DOTA-(D)Phe-cyclo[Cys-3-benzothienylalanyl-(D)Trp-Lys-Thr-Cys]Thr-OH, metal not drawn] |  |  |  | 
